Reference: PubChem BioAssay AID2060329 (Molecular Pharmacology Branch, DTP, NCI, 2025)

Test system: MCF7 multi-cell spheroids with HUVEC/MSC, viability
Experiment: Anticancer human tumor MCF7 cell line growth inhibition [IpAb];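 also: spheroids exposed to agents for seven days before readout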
Conditions: for IC50: curve of first compound; for viability, T/C: stronger effect = lower value
Text: Combinatorial screen of targeted agents with ipatasertib and abemaciclib in multi-cell type tumor spheroids
A high-throughput screen of multi-cell type tumor spheroids was designed to identify active combinations of targeted small molecules and ipatasertib or abemaciclib. Complex spheroids include a stromal component modeled by human endothelial cells (HUVEC) and fibroblasts modeled by human mesenchymal stem cells (MSCs). The concentration ranges selected for each drug and investigational agent were based upon clinically achievable concentrations if the clinical Cmax of the agent was known.
Compounds. The drugs and investigational agents: ipatasertib (NSC767898), abemaciclib(NSC768073), selumetinib (NSC741078), trametinib (758246), adavosertib (NSC754352), everolimus (NSC733504), sapanisertib (NSC764658), vemurafenib (NSC761431), venetoclax (NSC766270), copanlisib (NSC809693), apelisib (NSC765974), palbociblib (NSC758247), vemurafenib (NSC761431), dabrafenib (NSC764134), ravoxertinib (NSC781343), BMS-387032 (NSC767048), sotorasib (NSC818433), talazoparib (NSC767125) and afursertib (NSC778305), were obtained from the National Cancer Institute (NCI) Developmental Therapeutics Program Chemical Repository. The FDA-approved anticancer drug set is available from the NCI Developmental Therapeutics Program. […] The stock solutions were prepared in dimethyl sulfoxide (DMSO, Sigma-Aldrich, St. Louis, MO, cat. D2650) at 800-fold the tested concentration and stored at -70 degrees C prior to their use. All drugs and investigational agents were tested over a range starting from a high concentration at or near the clinical Cmax and decreasing in half-log increments. If the clinical Cmax for an agent had not been determined, the highest concentration tested was 10 microM.
NCI60 Cell Culture. NCI60 cell lines were obtained from the NCI Developmental Therapeutics Program Tumor Repository. For each lot of cells, the Repository performed Applied Biosystems AmpFLSTR Identifiler testing with PCR amplification to confirm consistency with the published Identifier STR profile for each cell line. Cells were kept in continuous culture for no more than 20 passages. The optimal seeding densities for each of the cell lines at each time point assessed were determined prior to performing the concentration response studies. Briefly, the NCI60 human tumor lines were grown as monolayers in RPMI 1640 medium supplemented with 10% FBS and 2 mmol/L L-glutamine.
An additional 9 lines were from the NCI60 cell line panel including MDA-MB-231 breast carcinoma, MDA-MB-468 breast carcinoma, MCF7 breast carcinoma, Hs578T breast carcinoma, MALME-3M melanoma, SK-MEL-2 melanoma, SK-OV-3 ovarian carcinoma, DU-145 prostate carcinoma, PC-3 prostate carcinoma, all cell lines along with major genetic alterations are listed on Table 2. Pooled donor human umbilical vein endothelial cells (HUVEC, Lonza, cat. CC-2519) and human mesenchymal stem cells (hMSC, Lonza, cat. PT-2501) were purchased from Lonza (Walkersville, MD).
PDMR cell lines were grown in complete medium (DC medium): Dulbecco's modified Eagle's medium (DMEM)/F12 supplemented with 5% fetal bovine serum (FBS), 2 mM L-glutamine, 100 U/mL penicillin and 100 µg/ml streptomycin, 0.4 µg/ml hydrocortisone, 10 ng/ml epidermal growth factor (EGF) recombinant human protein, 24 µg/mL adenine, and 0.1 mg/mL primocin. During culture from frozen stock vials, PDMR cells were cultured in the same medium containing 10 µM Y-27632 (see Table 3). The PDCs were cultured in complete DMEM/F12 media without 10 microM Y-27632 dihydrochloride for at least two passages prior to the screen. The pooled donor HUVEC and hMSC were cultured in endothelial cell growth medium 2 (PromoCell, Heidelberg, Germany, cat. C-22011) and mesenchymal stem cell growth medium 2 (PromoCell, cat. C-28009), respectively. For all experiments, HUVEC and hMSC were used at passages </=5.
[…]

[1] = second compound 0.1 µM, first compound 0.0316 µM
[2] = second compound 0.1 µM, first compound 0.1 µM
[3] = second compound 0.1 µM, first compound 0.316 µM
[4] = second compound 0.1 µM, first compound 1 µM
[5] = second compound 0.1 µM, first compound 3.16 µM
[6] = second compound 0.1 µM, first compound 10 µM
[7] = second compound 0.316 µM, first compound 0.0316 µM
[8] = second compound 0.316 µM, first compound 0.1 µM
[9] = second compound 0.316 µM, first compound 0.316 µM
[10] = second compound 0.316 µM, first compound 1 µM
[11] = second compound 0.316 µM, first compound 3.16 µM
[12] = second compound 0.316 µM, first compound 10 µM
[13] = second compound 1 µM, first compound 0.0316 µM
[14] = second compound 1 µM, first compound 0.1 µM
[15] = second compound 1 µM, first compound 0.316 µM
[16] = second compound 1 µM, first compound 1 µM
[17] = second compound 1 µM, first compound 3.16 µM
[18] = second compound 1 µM, first compound 10 µM
[19] = second compound 3.16 µM, first compound 0.0316 µM
[20] = second compound 3.16 µM, first compound 0.1 µM
[21] = second compound 3.16 µM, first compound 0.316 µM
[22] = second compound 3.16 µM, first compound 1 µM
[23] = second compound 3.16 µM, first compound 3.16 µM
[24] = second compound 3.16 µM, first compound 10 µM
[25] = second compound 10 µM, first compound 0.0316 µM
[26] = second compound 10 µM, first compound 0.1 µM
[27] = second compound 10 µM, first compound 0.316 µM
[28] = second compound 10 µM, first compound 1 µM
[29] = second compound 10 µM, first compound 3.16 µM
[30] = second compound 10 µM, first compound 10 µM

Row | Compound | IC50 (second compound 0.1 µM) [nM] | IC50 (second compound 0.316 µM) [nM] | IC50 (second compound 1 µM) [nM] | IC50 (second compound 3.16 µM) [nM] | IC50 (second compound 10 µM) [nM] | viability, T/C [1] [%] | viability, T/C [2] [%] | viability, T/C [3] [%] | viability, T/C [4] [%] | viability, T/C [5] [%] | viability, T/C [6] [%] | viability, T/C [7] [%] | viability, T/C [8] [%] | viability, T/C [9] [%] | viability, T/C [13] [%] | viability, T/C [14] [%] | viability, T/C [19] [%] | viability, T/C [20] [%] | viability, T/C [25] [%] | viability, T/C [26] [%] | further results
1 | C=CCn1c(=O)c2cnc(Nc3ccc(N4CCN(C)CC4)cc3)nc2n1-c1cccc(C(C)(C)O)n1 + CC(C)NCC(C(=O)N1CCN(c2ncnc3c2C(C)CC3O)CC1)c1ccc(Cl)cc1 | 543 | 367 | 169 | < 31.6 | < 31.6 | 89.1 | 99.2 | 67.4 | 31.8 | 26.3 | 33 | 77.8 | 80.9 | 49.4 | 64.2 | 61.6 | 49.6 | 38.2 | 42.4 | 33.2 | viability, T/C [10]: 37.4%; viability, T/C [11]: 23.2%; viability, T/C [12]: 27%; viability, T/C [15]: 36.5%; viability, T/C [16]: 20.9%; viability, T/C [17]: 17.7%; viability, T/C [18]: 16.4%; viability, T/C [21]: 25.5%; viability, T/C [22]: 14.6%; viability, T/C [23]: 11.2%; viability, T/C [24]: 7.69%; viability, T/C [27]: 19.4%; viability, T/C [28]: 10.6%; viability, T/C [29]: 8.49%; viability, T/C [30]: 4.08%
2 | CC(C)n1nc(-c2ccc3oc(N)nc3c2)c2c(N)ncnc21 + CC(C)NCC(C(=O)N1CCN(c2ncnc3c2C(C)CC3O)CC1)c1ccc(Cl)cc1 | 13.9 | 8.42 | 2.59 | 0.594 | < 0.316 | 29.5 | 13.1 | – | – | – | – | 17.9 | 9.55 | – | 8.63 | 6.29 | 6.78 | 7.35 | 8.47 | 6.95 | viability, T/C (second compound 0.1 µM, first compound 0.000316 µM): 88.7%; viability, T/C (second compound 0.1 µM, first compound 0.001 µM): 92.6%; viability, T/C (second compound 0.1 µM, first compound 0.00316 µM): 77.4%; viability, T/C (second compound 0.1 µM, first compound 0.01 µM): 58.9%; viability, T/C (second compound 0.316 µM, first compound 0.000316 µM): 82.5%; viability, T/C (second compound 0.316 µM, first compound 0.001 µM): 85.9%; viability, T/C (second compound 0.316 µM, first compound 0.00316 µM): 65.4%; viability, T/C (second compound 0.316 µM, first compound 0.01 µM): 50.3%; viability, T/C (second compound 1 µM, first compound 0.000316 µM): 77.5%; viability, T/C (second compound 1 µM, first compound 0.001 µM): 64.8%; viability, T/C (second compound 1 µM, first compound 0.00316 µM): 48.4%; viability, T/C (second compound 1 µM, first compound 0.01 µM): 21.1%; viability, T/C (second compound 3.16 µM, first compound 0.000316 µM): 56.1%; viability, T/C (second compound 3.16 µM, first compound 0.001 µM): 42.6%; viability, T/C (second compound 3.16 µM, first compound 0.00316 µM): 36.5%; viability, T/C (second compound 3.16 µM, first compound 0.01 µM): 9.09%; viability, T/C (second compound 10 µM, first compound 0.000316 µM): 48.4%; viability, T/C (second compound 10 µM, first compound 0.001 µM): 45.5%; viability, T/C (second compound 10 µM, first compound 0.00316 µM): 17.5%; viability, T/C (second compound 10 µM, first compound 0.01 µM): 8.22%
3 | CC1(C)CCC(CN2CCN(c3ccc(C(=O)NS(=O)(=O)c4ccc(NCC5CCOCC5)c([N+](=O)[O-])c4)c(Oc4cnc5[nH]ccc5c4)c3)CC2)=C(c2ccc(Cl)cc2)C1 + CC(C)NCC(C(=O)N1CCN(c2ncnc3c2C(C)CC3O)CC1)c1ccc(Cl)cc1 | 6000 | 4520 | 2510 | 33.7 | < 31.6 | 85 | 83.3 | 87.6 | 84.2 | 84.9 | 22.2 | 72.4 | 74.9 | 69.5 | 69.4 | 64.9 | 47.9 | 51.6 | 39.3 | 34.5 | viability, T/C [10]: 72.1%; viability, T/C [11]: 67.3%; viability, T/C [12]: 11.3%; viability, T/C [15]: 70.1%; viability, T/C [16]: 56.1%; viability, T/C [17]: 49.5%; viability, T/C [18]: 10.9%; viability, T/C [21]: 51.3%; viability, T/C [22]: 39.7%; viability, T/C [23]: 34.1%; viability, T/C [24]: 9.03%; viability, T/C [27]: 32.1%; viability, T/C [28]: 27.8%; viability, T/C [29]: 29.7%; viability, T/C [30]: 5.76%
4 | CCCS(=O)(=O)Nc1ccc(F)c(C(=O)c2c[nH]c3ncc(-c4ccc(Cl)cc4)cc23)c1F + CC(C)NCC(C(=O)N1CCN(c2ncnc3c2C(C)CC3O)CC1)c1ccc(Cl)cc1 | > 10000 | > 10000 | > 10000 | > 10000 | 31.6 | 97 | 90 | 90.3 | 98.8 | 98.5 | 101 | 85.4 | 76.6 | 86.3 | 73.2 | 70.3 | 59.4 | 60.1 | 43.4 | 42.7 | viability, T/C [10]: 76.5%; viability, T/C [11]: 80.2%; viability, T/C [12]: 85.2%; viability, T/C [15]: 69.1%; viability, T/C [16]: 64.5%; viability, T/C [17]: 71.3%; viability, T/C [18]: 76.6%; viability, T/C [21]: 53.5%; viability, T/C [22]: 52.7%; viability, T/C [23]: 79.8%; viability, T/C [24]: 60%; viability, T/C [27]: 44.1%; viability, T/C [28]: 52.4%; viability, T/C [29]: 53.7%; viability, T/C [30]: 9.37%
